In patent publication US20210333263A1, “REDOX ACTIVATABLE FLUORESCENT SENSORS” (The Board of Regents of the University of Texas System, priority 2016, published 2021):

Assays:
A549 lung cancer cells = assay: High-throughput quantification of cytosolic delivery of qRAS-labeled protein on a plate reader; assay type: cell-based; details: cells pretreated with 50 μM NEM for 30 min, then JetPEI and OVA^qRAS
Description: A549 cancer cells were seeded into 96-well black plate at a density of 10,000 cells per well and incubated for 24 hr. The polymer solution (100 μg/mL) and qRAS-labeled protein (OVA^qRAS or IgG^qRAS, 25 μg/mL) were co-incubated with cells for 40 min at 37° C. The cells were washed twice with PBS (pH 7.4) and cultured in complete culture medium. The fluorescence of TMR and Cy5 were measured on a Tecan fluorescent plate reader at different times. At 24 hr, 5 mM DTT was added to cleave the intracellular disulphide bond and completely release the TMR signal. The excitation and emission settings: TMR: Ex: 545 nm with bandwidth 9 nm, Em: 595 nm with bandwidth 20 nm; Cy5: Ex: 640 nm with bandwidth 9 nm, Em: 690 nm with bandwidth 20 nm.
The activation percentage (%) of OVA^qRAS was calculated using the equation described below:
Activation (%)=(FTMR−F0)/(FTMR,DTT−F0)*100
where FTMR is the fluorescence intensity of TMR at different times, FTMR,DTT is the fluorescence intensity of TMR after the addition of DTT at 24 hr, and F0 is the background of TMR fluorescence.
For the N-ethylmaleimide (NEM) blocking experiments, the same procedures were used except that the cells were pretreated with 50 μM NEM for 30 min prior to the treatment with polymer and OVA^qRAS.

[1] = Fluorescence emission as a function of pH in PBS; assay type: physicochemical; details: pH 4.0 to 8.0, PBS, 6 hours
Description: Samples were excited at 390 nm.
FIG. 9 show the normalized fluorescence emission ratio of OVA^qRAS in PBS at different pH. OVA^qRAS (0.5 mg/mL) was incubated in PBS with different pH for 6 hours. The fluorescence emission spectra of TMR and Cy5 were recorded using a Hitachi fluorometer with excitation wavelength at 550 nm and 640 nm, respectively.

Row | Molecule | fluorescence signals of OVA^qRAS after NEM pretreatment (A549 lung cancer cells) | TMR/Cy5 ratio across pH range [1]
1 | CCN1C(=O)C=CC1=O [N-ethylmaleimide] | significant suppression of fluorescence signals | –
2 | OVA^qRAS: Ovalbumin labeled by qRAS (conjugate, UniProt P01012 2-386, looked up, qRAS label) Ovalbumin: GSIGAASMEFCFDVFKELKVHHANENIFYCPIAIMSALAMVYLGAKDSTRTQINKVVRFDKLPGFGDSIEAQCGTSVNVHSSLRDILNQITKPNDVYSFSLASRLYAEERYPILPEYLQCVKELYRGGLEPINFQTAADQARELINSWVESQTNGIIRNVLQPSSVDSQTAMVLVNAIVFKGLWEKAFKDEDTQAMPFRVTEQESKPVQMMYQIGLFRVASMASEKMKILELPFASGTMSMLVLLPDEVSGLEQLESIINFEKLTEWTSSNVMEERKIKVYLPRMKMEEKYNLTSVLMAMGITDVFSSSANLSGISSAESLKISQAVHAAHAEINEAGREVVGSAEAGVDAASVSEEFRADHPFLFCIKHIATNAVLFFGRCVSP | – | remained constant
